Data as given in patent publication US12552772B2, “2-pyrazole anilines and related analogs for inhibiting YAP/TAZ-TEAD” (KATHOLIEKE UNIVERSITEIT LEUVEN, priority 2021, dated 2026).
pEC50: −log10 of the molar value.

System: YAP/TAZ-TEAD transcription
Assay: Reporter gene assay for measuring the inhibition of YAP/TAZ-TEAD transcription (TEAD-responsive element luciferase reporter in Hek293T cells)
Assay type: cell-based
Conditions: Homo sapiens, HEK-293T, 24 hours incubation
Summary of the method: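 Percent inhibition, scaled between vehicle (0%) and a positive control inhibitor (100%), came from SteadyLite luciferase signal after 24 h compound exposure at 37 °C/5% CO2. Cells: Hek293T transiently carrying a TEAD-responsive luciferase reporter; EC50 derived.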

| SMILES | pEC50 |
| --- | --- |
| C=CC(=O)NCc1ccc(-c2ccc(F)cc2)cc1C1CCN(C)C1 (stereo not shown) [compound 183, N-((4′-fluoro-3-(1-methylpyrrolidin-3-yl)-[1,1′-biphenyl]-4-yl)methyl)acrylamide] | 4.70 to 6.00 |
| C=CC(=O)Nc1ccc(Cn2ccc(-c3cccc(-c4ccccc4)c3)n2)cn1 [compound 037, N-(5-((3-([1,1′-biphenyl]-3-yl)-1H-pyrazol-1-yl)methyl)pyridin-2-yl)acrylamide] | 4.70 to 6.00 |
| C=CC(=O)NCc1ccc(-c2ccc(F)cc2)cc1-c1ccn(C(C)C)n1 [compound 150, N-((4′-fluoro-3-(1-isopropyl-1H-pyrazol-3-yl)-[1,1′-biphenyl]-4-yl)methyl)acrylamide] | > 6.00 |
| c1ccc(-c2ccc(NC3CCCOC3)c(-c3ccn(Cc4cccnc4)n3)c2)cc1 (stereo not shown) [compound 070, N-(3-(1-(pyridin-3-ylmethyl)-1H-pyrazol-3-yl)-[1,1′-biphenyl]-4-yl)tetrahydro-2H-pyran-3-amine] | > 6.00 |
| CNS(=O)(=O)CCNc1ccc(-c2ccc(OC(F)(F)F)cc2)cc1-c1ccn(Cc2cccnc2)n1 [compound 098, N-methyl-2-((3-(1-(pyridin-3-ylmethyl)-1H-pyrazol-3-yl)-4′-(trifluoromethoxy)-[1,1′-biphenyl]-4-yl)amino)ethane-1-sulfonamide] | > 6.00 |
| O=C1CC(Nc2ccc(-c3ccccc3)cc2-c2ccn(Cc3cccnc3)n2)CCN1 (stereo not shown) [compound 072, 4-((3-(1-(pyridin-3-ylmethyl)-1H-pyrazol-3-yl)-[1,1′-biphenyl]-4-yl)amino)piperidin-2-one] | 4.70 to 6.00 |
| C=CC(=O)NCc1cnc(-c2ccn(C(F)F)n2)cc1N1CCC(F)(F)CC1 [compound 222, N-((6-(1-(difluoromethyl)-1H-pyrazol-3-yl)-4-(4,4-difluoropiperidin-1-yl)pyridin-3-yl)methyl)acrylamide] | 4.70 to 6.00 |
| C=CC(=O)NCc1[nH]c(=O)c(-c2ccc(F)cc2)cc1-c1ccn(C)n1 [Cpd. No. 234, N-((5-(4-fluorophenyl)-3-(1-methyl-1H-pyrazol-3-yl)-6-oxo-1,6-dihydropyridin-2-yl)methyl)acrylamide] | > 6.00 |
| CNS(=O)(=O)CCNc1ccc(-c2ccc(OC(F)F)cc2)cc1-c1ccn(Cc2cccnc2)n1 [compound 099, 2-((4′-(difluoromethoxy)-3-(1-(pyridin-3-ylmethyl)-1H-pyrazol-3-yl)-[1,1′-biphenyl]-4-yl)amino)-N-methylethane-1-sulfonamide] | > 6.00 |
| CNS(=O)(=O)CCNc1ccc(-c2cccc(OC(F)(F)F)c2)cc1-c1ccn(C)n1 [compound 129, N-methyl-2-((3-(1-methyl-1H-pyrazol-3-yl)-3′-(trifluoromethoxy)-[1,1′-biphenyl]-4-yl)amino)ethane-1-sulfonamide] | 4.70 to 6.00 |
| CNS(=O)(=O)CCN(C)c1ccc(-c2ccccc2)cc1-c1ccn(Cc2cccnc2)n1 [compound 067, N-methyl-2-(methyl(3-(1-(pyridin-3-ylmethyl)-1H-pyrazol-3-yl)-[1,1′-biphenyl]-4-yl)amino)ethane-1-sulfonamide] | 4.70 to 6.00 |
| CNS(=O)(=O)CCNc1ccc(-c2ccc(C(F)(F)F)cc2)cc1-c1ccn(CCOC)n1 [compound 105, 2-((3-(1-(2-methoxyethyl)-1H-pyrazol-3-yl)-4′-(trifluoromethyl)-[1,1′-biphenyl]-4-yl)amino)-N-methylethane-1-sulfonamide] | > 6.00 |
| c1ccc(Cn2ccc(-c3cccc(-c4cncnc4)c3)n2)cc1 [compound 016, 5-(3-(1-benzyl-1H-pyrazol-3-yl)phenyl)pyrimidine] | 4.70 to 6.00 |
| CS(=O)(=O)N1CCC(c2ccc(-c3ccc(F)cc3)cc2-c2ccn(C(F)F)n2)C1 (stereo not shown) [compound 260, 1-(difluoromethyl)-3-(4′-fluoro-4-(1-(methylsulfonyl)pyrrolidin-3-yl)-[1,1′-biphenyl]-3-yl)-1H-pyrazole] | < 4.70 |
| NC(=O)c1cncc(Cn2ccc(-c3cccc(-c4ccccc4)c3)n2)c1 [compound 041, 5-((3-([1,1′-biphenyl]-3-yl)-1H-pyrazol-1-yl)methyl)nicotinamide] | 4.70 to 6.00 |
| CNS(=O)(=O)CCNc1ccc(-c2ccccc2)cc1-c1ccn(Cc2cccc(C#N)c2)n1 [compound 104, 2-((3-(1-(3-cyanobenzyl)-1H-pyrazol-3-yl)-[1,1′-biphenyl]-4-yl)amino)-N-methylethane-1-sulfonamide] | > 6.00 |
| CNS(=O)(=O)CCNc1ccc(Nc2ccccc2)cc1-c1ccn(Cc2cccnc2)n1 [compound 116, N-methyl-2-((4-(phenylamino)-2-(1-(pyridin-3-ylmethyl)-1H-pyrazol-3-yl)phenyl)amino)ethane-1-sulfonamide] | > 6.00 |
| COc1cccc(Cn2ccc(-c3cccc(-c4ccccc4)c3)n2)c1 [compound 019, 3-([1,1′-biphenyl]-3-yl)-1-(3-methoxybenzyl)-1H-pyrazole] | 4.70 to 6.00 |
| CNS(=O)(=O)CCNc1ccc(-c2ccc(Cl)cc2)cc1-c1ccn(Cc2cccnc2)n1 [compound 106, 2-((4′-chloro-3-(1-(pyridin-3-ylmethyl)-1H-pyrazol-3-yl)-[1,1′-biphenyl]-4-yl)amino)-N-methylethane-1-sulfonamide] | > 6.00 |

| SMILES | pEC50 |
| --- | --- |
| O=S1(=O)CCC(Nc2ccc(-c3ccccc3)cc2-c2ccn(Cc3cccnc3)n2)CC1 [compound 068, 4-((3-(1-(pyridin-3-ylmethyl)-1H-pyrazol-3-yl)-[1,1′-biphenyl]-4-yl)amino)tetrahydro-2H-thiopyran-1,1-dioxide] | 4.70 to 6.00 |
| CNS(=O)(=O)CCNc1ccc(-c2ccc(OC)cc2)cc1-c1ccn(Cc2cccnc2)n1 [compound 111, 2-((4′-methoxy-3-(1-(pyridin-3-ylmethyl)-1H-pyrazol-3-yl)-[1,1′-biphenyl]-4-yl)amino)-N-methylethane-1-sulfonamide] | > 6.00 |
| Nc1cncc(-c2cccc(-c3ccn(Cc4ccccc4)n3)c2)c1 [compound 003, 5-(3-(1-benzyl-1H-pyrazol-3-yl)phenyl)pyridin-3-amine] | 4.70 to 6.00 |
| C=CC(=O)NCc1cnc(-c2ccc(C#N)cc2)cc1-c1ccn(C(F)F)n1 [compound 219, N-((6-(4-cyanophenyl)-4-(1-(difluoromethyl)-1H-pyrazol-3-yl)pyridin-3-yl)methyl)acrylamide] | > 6.00 |
| C=CC(=O)NCc1ccc(-c2ccc(C(F)(F)F)cc2F)cc1-c1ccn(C)n1 [compound 146, N-((2′-fluoro-3-(1-methyl-1H-pyrazol-3-yl)-4′-(trifluoromethyl)-[1,1′-biphenyl]-4-yl)methyl)acrylamide] | > 6.00 |
| CNS(=O)(=O)CCNc1ccc(C2CCCCC2)cc1-c1ccn(Cc2cccnc2)n1 [compound 095, 2-((4-cyclohexyl-2-(1-(pyridin-3-ylmethyl)-1H-pyrazol-3-yl)phenyl)amino)-N-methylethane-1-sulfonamide] | > 6.00 |
| CNS(=O)(=O)CCNc1ccc(Cc2ccccc2)cc1-c1ccn(Cc2cccnc2)n1 [compound 115, 2-((4-benzyl-2-(1-(pyridin-3-ylmethyl)-1H-pyrazol-3-yl)phenyl)amino)-N-methylethane-1-sulfonamide] | > 6.00 |
| CNS(=O)(=O)CCNc1ccc(-c2cccnc2)cc1-c1ccn(Cc2cccnc2)n1 [compound 094, N-methyl-2-((4-(pyridin-3-yl)-2-(1-(pyridin-3-ylmethyl)-1H-pyrazol-3-yl)phenyl)amino)ethane-1-sulfonamide] | 4.70 to 6.00 |
| c1ccc(-c2cccc(-c3ccn(Cc4ccncc4)n3)c2)cc1 [compound 022, 4-((3-([1,1′-biphenyl]-3-yl)-1H-pyrazol-1-yl)methyl)pyridine] | 4.70 to 6.00 |
| O=S1(=O)CCN(c2ccc(-c3ccccc3)cc2-c2ccn(Cc3cccnc3)n2)CC1 [compound 051, 4-(3-(1-(pyridin-3-ylmethyl)-1H-pyrazol-3-yl)-[1,1′-biphenyl]-4-yl)thiomorpholine 1,1-dioxide] | < 4.70 |
| CNS(=O)(=O)CCNc1ccc(-c2cc(F)cc(C(F)(F)F)c2)cc1-c1ccn(C)n1 [compound 128, 2-((3′-fluoro-3-(1-methyl-1H-pyrazol-3-yl)-5′-(trifluoromethyl)-[1,1′-biphenyl]-4-yl)amino)-N-methylethane-1-sulfonamide] | > 6.00 |
| CNS(=O)(=O)CCNc1ccc(-c2ccc(C(F)F)cc2)cc1-c1ccn(Cc2cccnc2)n1 [compound 097, 2-((4′-(difluoromethyl)-3-(1-(pyridin-3-ylmethyl)-1H-pyrazol-3-yl)-[1,1′-biphenyl]-4-yl)amino)-N-methylethane-1-sulfonamide] | > 6.00 |
| CNS(=O)(=O)CCNc1ccc(-c2ccc(C(F)(F)F)cc2)nc1-c1ccn(C(F)F)n1 [compound 134, 2-((2-(1-(difluoromethyl)-1H-pyrazol-3-yl)-6-(4-(trifluoromethyl)phenyl)pyridin-3-yl)amino)-N-methylethane-1-sulfonamide] | > 6.00 |
| CCC(=O)NCc1cnc(-c2ccc(F)cc2)cc1-n1ncc(C)n1 [compound 245, N-((6-(4-fluorophenyl)-4-(4-methyl-2H-1,2,3-triazol-2-yl)pyridin-3-yl)methyl)propionamide] | > 6.00 |
| C=CC(=O)NCc1ccc(N2CCC(C(F)(F)F)CC2)cc1-c1ccn(C)n1 [compound 181, N-(2-(1-methyl-1H-pyrazol-3-yl)-4-(4-(trifluoromethyl)piperidin-1-yl)benzyl)acrylamide] | > 6.00 |
| C=CC(=O)NCc1ccc(-c2ccc(C(F)(F)F)cc2)cc1-c1ccn(CCOC)n1 [compound 156, N-((3-(1-(2-methoxyethyl)-1H-pyrazol-3-yl)-4′-(trifluoromethyl)-[1,1′-biphenyl]-4-yl)methyl)acrylamide] | > 6.00 |
| O=C(O)CCNc1cc(-c2ccccc2)cc(-c2ccn(Cc3cccnc3)n2)c1 [compound 061, 3-((5-(1-(pyridin-3-ylmethyl)-1H-pyrazol-3-yl)-[1,1′-biphenyl]-3-yl)amino)propanoic acid] | < 4.70 |
| CCC(=O)NCc1cnc(-c2ccc(F)cc2)cc1-n1nnnc1C [compound 252, N-((6-(4-fluorophenyl)-4-(5-methyl-1H-tetrazol-1-yl)pyridin-3-yl)methyl)propionamide] | < 4.70 |
